In patent US6635802B1, “Nuclear transfer using cells cultured in serum starvation media containing apoptosis inhibitors” (The Texas A&M University System, priority 2000, dated 2003):
Where a SMILES comes first, the peptide text is derived from it. [ ]: non-standard residue; d: D form. The star is where a group is joined. Sta = CC(C)C[C@H](N)[C@@H](O)CC(=O)O; Isovaleryl = CC(C)CC(=O)*

Key:
Format in all cases: cell-based
[1] = system: porcine PGCs; experiment: In vitro culture of porcine PGCs on STO feeder cells with apoptosis inhibitors; AP-stained colonies counted; settings: Table 6 protease inhibitors: MAC 0.7 pM, PA 50 μM, AEBSF 250 μM, TLCK 100 μM; normalized to control
[2] = system: porcine PGCs; experiment: as above; settings: for Effect on the number of PGCs, in words: single concentrations of Tables 6 and 7; for Normalized # of Colonies + SE: Table 7 antioxidants: NAC 1.0 mM, BHA 0.1 mM, BPN 1.0 mM, CIM 2.0 mM, normalized to control
Description: Porcine fetuses were collected from hysterectomized uteri of four-way crossbred gilts (DeKalb, Ill.) between day 25 and 30 of pregnancy (estrus=day 0). Fetuses were washed in phosphate buffered saline supplemented with BSA (0.4%, Sigma St. Louis, Mo.) and penicillin/streptomycin (1%, Gibco BRL, Rockville, Md.) (PBS/BSA/PS). Urogenital ridges, appeared as longitudinal protrusions along the medial mesonephric surface, were isolated and washed in PBS/BSA/PS followed by several washes in PES medium before PGC collection. The PES medium was comprised of 50:50 mixture of Dulbecco's modified Eagle's medium (DMEM) and Ham's F10 medium supplemented with 15% fetal bovine serum (FBS), L-glutamine (2 mM), β-mercaptoethanol (0.1 mM), MEM non-essential amino acids (1%) and penicillin/streptomycin (1%). All media and supplements were purchased from Gibco BRL.
PGCs were isolated by incubation in 0.25% trypsin/1 mM EDTA solution (Gibco BRL) followed by gentle pipetting or by mechanical dissociation of ridges into small fragments followed by gentle pipetting. After tissue disruption, cells were centrifuged for 5 minutes at 250 rpm to remove tissue debris and clumps. The supernatant containing most the single cells was collected and centrifuged at 1000 rpm for 10 minutes.
PGCs were resuspended with PES medium containing cytokines, such as soluble recombinant human stem cell factor (SCF; 40 ng/ml), human basic fibroblast growth factor (bFGF; 20 ng/ml), and human leukemia inhibitory factor (LIF; 20 ng/ml). All cytokines were obtained from R&D Systems (Minneapolis, Minn.). Cell suspensions were plated on irradiated mouse STO feeder cells (3×10^6 cells per 35 mm well), prepared as previously described (Piedrahita et al., 1998) and cultured in humidified environment of 5% CO2 in air, 38° C. PGC-derived colonies with ES-like morphology after 7-10 days of culture are passaged to fresh feeders for establishment of cell lines. PGC-derived colonies were dissociated with 0.25% trypsin/1 mM EDTA (Gibco BRL) for 10 minutes. […] To identify PGC-derived cells and the state of differentiation were determined by morphology and by expression of alkaline phosphatase (AP).
AP activity was determined as described previously (Moore and Piedrahita, 1997). Briefly, culture plates were rinsed twice in PBS and fixed in 4% formaldehyde in PBS for 15 minutes at room temperature. Fixed cells were washed twice with PBS and stained in naphtol AS-MX phosphate (200 μg/ml; Sigma) and Fast Red TR salt (1 mg/ml; Sigma) in 100 mM Tris buffer, pH 8.2 for 30 minutes at room temperature. Staining was terminated by washing cultures in PBS. Specificity of AP activity was determined by staining in the presence of the AP inhibitor, tetramisole (500 μM; Sigma). Mouse ES cells also were stained as control for AP activity.
To determine the effect of apoptosis inhibitors on survival of porcine PGCs in vitro, freshly isolated PGCs were cultured as described above with or without apoptosis inhibitors, α2-macroglobulin (MAC: broad range protease inhibitor, 1.4 pM) and N-acetylcysteine (NAC: antioxidant, 1 mM). After 7-10 days of culture, colonies were stained for AP activity and counted. Studies were performed at least three replicates. The data were normalized to the treatment with no inhibitors added (control) and tested for homogeneity of variance and analyzed by ANOVA. Mean separation is accomplished by Fisher's protected LSD using software SuperANOVA (Abacus Concepts).
Dose titration of MAC (0.35, 0.7, 1.4, and 2.8 pM) and NAC (0.25, 0.5, 1.0, and 2.0 mM), to determine the optimal concentration of inhibitors, were performed.

[3] = system: Porcine embryonic fibroblast (PEF); experiment: Cell cycle distribution (propidium iodide flow cytometry) of serum starved porcine embryonic fibroblasts
Description: (§1) Porcine embryonic fibroblast (PEF) were isolated from day 25-28 fetuses according to the methods previously described (Hogan et al., 1994). Briefly, porcine fetuses of day 25-30 (day 0=estrus) were removed from the uterus and rinsed with PBS+penicillin/streptomycin solution (PBS/PS). Head, limbs and internal organs were removed, and the carcasses were minced with razor blades or ground using a syringe head until they were the consistency of sludge. Then these were trypsinized 2-3 times using 0.25% trypsin+EDTA for 20 minutes. The supernatant fraction was removed and centrifuged to collect the cells. The cells were plated using DMEM+10% fetal bovine serum (FBS) and cultured up to 80-90% confluency before further passage.
(§2) Bovine embryonic fibroblasts (BEF) were isolated from the fetus with 3-5 cm crown-rump length. After two or three passages, cells were plated one million cells per plate (100 mm) with growth medium (DMEM) with 2 mM L-glutamine, 0.1 mM β-mercaptoethanol and 10% FBS. After 24 hours, cells were washed with PBS 3-5 times and then serum starvation medium with 0.5% FBS was added. In addition, cells were treated with serum starvation medium containing apoptosis inhibitors such as a2-macroglobulin (0.7 pM), N-acetylcysteine (1 mM) and glutathione (2 mM). Cells were treated with serum starvation with or without apoptosis inhibitors for 5 or 10 days. Then cells were trypsinized and counted.
(§3) Cells (1×10^6) were washed in 0.15 M NaCI, fixed in 70% ethanol, and stored at −20° C. overnight or until ready to be analyzed. For analysis, cells were centrifuged, rinsed with PBS, resuspended in 500 μl of a 0.05 mg/ml propidium iodide/0.1% Triton X-100/0.2 mg/ml RNase A solution, and incubated for a minimum of 30 minutes at room temperature in the dark. Cells were analyzed by flow cytometry to determine DNA content. Modfit LT™ (Verity Software House, Topsham, Me.) was used to model the cell cycle distribution within each sample.

[4] = system: Bovine embryonic fibroblasts (BEF); experiment: TUNEL assay (flow cytometry) of serum starved bovine embryonic fibroblasts; settings: MAC 0.7 pM, NAC 1 mM, GSH 2 mM
Protocol: as §2
After counting, cells were fixed and stained according to protocols with the APO-BRDU kit (Phoenix Flow Systems, San Diego, Calif.). Briefly, cells were fixed in 1% paraformaldehyde in PBS on ice for 15 minutes, washed in PBS, and fixed in 70% ethanol and stored at −20° C. until use. After removing the fixative, cells were washed twice and suspended in 50 μl of labeling solution containing Br-dUTP (bromolated deoxyuridine triphosphate) and TdT (terminal deoxynucleotidyl transferase) for 60 minutes at 37° C. TdT catalyzes the addition of Br-dUTP to the 3′-OH ends of DNA strand breaks in a template independent manner. To determine base line fluorescence, control cells were incubated without TdT. After rinsing, cells were incubated with an anti-BrdU monoclonal antibody conjugated to fluorescein for 30 minutes in the dark at room temperature; apoptotic cells which contain many free 3′-OH ends are intensely labeled, while non-apoptotic cells whose DNA is largely intact have little Br-dUTP incorporation and remain unlabeled. Following counterstaining with a propidium iodide/RNase A solution for 30 minutes in the dark, which allows simultaneous analysis of cell cycle position and apoptosis, cells were analyzed on a FACSCalibur™ flow cytometer (Becton Dickinson, San Jose, Calif.). Fluorescence emissions were measured at 582±21 nm for propidium iodide and 530±15 nm for fluorescein, without spectral compensation, after excitation at 488 nm by an argon-ion laser. For analysis, gates were set so that less than 2% of samples incubated without TdT were positive. Any event above this gate was deemed TUNEL positive for samples incubated with TdT.

[5] = system: Bovine embryonic fibroblasts (BEF); experiment: Cell cycle distribution (propidium iodide flow cytometry) of serum starved bovine embryonic fibroblasts
Protocol: as §2, §3

[6] = system: Porcine embryonic fibroblast (PEF); experiment: TUNEL assay (flow cytometry) of serum starved porcine embryonic fibroblasts; settings: serum starvation 5 days, MAC 0.7 pM, NAC 1 mM, GSH 2 mM, serum starved without inhibitor 26.50
Description: as §1, §2
After counting, cells were fixed and stained according to protocols with the APO-BRDU kit (Phoenix Flow Systems, San Diego, Calif.). […] To determine base line fluorescence, control cells were incubated without TdT. […] Following counterstaining with a propidium iodide/RNase A solution for 30 minutes in the dark, which allows simultaneous analysis of cell cycle position and apoptosis, cells were analyzed on a FACSCalibur™ flow cytometer (Becton Dickinson, San Jose, Calif.). Fluorescence emissions were measured at 582±21 nm for propidium iodide and 530±15 nm for fluorescein, without spectral compensation, after excitation at 488 nm by an argon-ion laser. […]

[7] = addition during the starvation period
[8] = serum starvation 5 days, MAC 0.7 pM, NAC 1 mM, GSH 2 mM

Q: How did the “Normalized # of Colonies + SE” value [1] turn out when `NCCc1ccc(S(=O)(=O)F)cc1` [AEBSF, 4-(2-aminoethyl)benzenesulfonyl fluoride] was run?
A: Its value is 1.14 ± 0.07.

Q: And the “Effect on the number of PGCs, in words” value [2]?
A: Its value is “positive effect”.

Q: Which “Normalized # of Colonies + SE” value [2] does the source give for `COc1ccc(O)c(C(C)(C)C)c1` [BHA, butylated hydroxyanisole] here?
A: Its value is 2.48 ± 0.27.

Q: `CC(C)(C)[N+]([O-])=Cc1ccccc1` [BPN, N-t-butyl-α-phenylnitrone] was tested. Which “Normalized # of Colonies + SE” value [2] did it give?
A: The value was 1.95 ± 0.17.

Q: For `CN/C(=N/CCSCc1nc[nH]c1C)NC#N` [CIM, cimetidine], which “Normalized # of Colonies + SE” value [2] is on record?
A: Its value is 1.95 ± 0.05.

Q: How did the “Proportion of cells going into G0, in words” value [3, 7] turn out when `N[C@@H](CCC(=O)N[C@@H](CS)C(=O)NCC(=O)O)C(=O)O` [GSH, glutathione] was run?
A: The value was “did not affect the proportion of cells going into G0”.

Q: And the “G0/G1 (%)” value [3, 8]?
A: Its value is 95%.

Q: What about the “G2/M (%)” value [3, 8] of the same compound?
A: Its value is 3%.

Q: And the “S (%)” value [3, 8]?
A: The value was 2%.

Q: What about the “5-day Apoptosis (%)” value ([4]; serum starvation 5 days, serum starved without inhibitor 15.0) of the same compound?
A: The value was 1.5%.

Q: What about the “10-day Apoptosis (%)” value ([4]; serum starvation 10 days, serum starved without inhibitor 20.4) of the same compound?
A: The value was 0.8%.

Q: And the “Proportion of cells going into G0, in words” value [5, 7]?
A: Its value is “did not affect the proportion of cells going into G0”.

Q: What about the “G2/M (%)” value [5, 8] of the same compound?
A: Its value is 10%.

Q: And the “S (%)” value [5, 8]?
A: Its value is 4%.

Q: What about the “G0/G1 (%)” value ([5]; serum starvation (0.5% FBS) 5 days, MAC 0.7 pM, NAC 1 mM, GSH 2 mM) of the same compound?
A: Its value is 86%.

Q: What about the “5-day Apoptosis (%)” value [6] of the same compound?
A: The value was 0.12%.

Q: For `CC(C)CC(=O)N[C@H](C(=O)N[C@H](C(=O)N[C@@H](CC(C)C)[C@@H](O)CC(=O)N[C@@H](C)C(=O)N[C@@H](CC(C)C)[C@@H](O)CC(=O)O)C(C)C)C(C)C` [PA, pepstatin A] (Isovaleryl-VV[Sta]A[Sta]-OH), which “Normalized # of Colonies + SE” value [1] is on record?
A: Its value is 0.85 ± 0.13.

Q: Which “Normalized # of Colonies + SE” value [1] does the source give for `Cc1ccc(S(=O)(=O)N[C@@H](CCCCN)C(=O)CCl)cc1` [TLCK, Nα-p-tosyl-L-lysine chloromethyl ketone] here?
A: The value was 1.21 ± 0.10.

Q: What about the “Effect on the number of PGCs, in words” value [2] of the same compound?
A: Its value is “positive effect”.
